Read-outs that look alike come from different tables or passages of the source.

This assay deals with human σ1 receptor (Homo sapiens, UniProt Q99720). Briefly: Human σ1 receptor radioligand assay ([3H](+)-pentazocine, transfected HEK-293 membranes). Also on record: μ and σ1 dual binding: key to the marks not given beside the values. The following applies: one class symbol for both Ki-σ1 (human σ1 receptor, A1) and Ki-μ (human μ-opioid receptor, A2). Type of assay: binding. As for the experimental part:
Human σ1 Receptor Radioligand Assay
To investigate binding properties of test compounds to human σ1 receptor, transfected HEK-293 membranes and [^3H](+)-pentazocine (Perkin Elmer, NET-1056), as the radioligand, were used. The assay was carried out with 7 μg of membrane suspension, 5 nM of [^3H](+)-pentazocine in either absence or presence of either buffer or 10 μM Haloperidol for total and non-specific binding, respectively. Binding buffer contained Tris-HCl 50 mM at pH 8. Plates were incubated at 37° C. for 120 minutes. After the incubation period, the reaction mix was then transferred to MultiScreen HTS, FC plates (Millipore), filtered and plates were washed 3 times with ice-cold 10 mM Tris-HCL (pH7.4). Filters were dried and counted at approximately 40% efficiency in a MicroBeta scintillation counter (Perkin-Elmer) using EcoScint liquid scintillation cocktail

The mark [1] stands for this setting: read-out: μ and σ1 dual binding.

Sequence of human σ1 receptor (Q99720 whole entry): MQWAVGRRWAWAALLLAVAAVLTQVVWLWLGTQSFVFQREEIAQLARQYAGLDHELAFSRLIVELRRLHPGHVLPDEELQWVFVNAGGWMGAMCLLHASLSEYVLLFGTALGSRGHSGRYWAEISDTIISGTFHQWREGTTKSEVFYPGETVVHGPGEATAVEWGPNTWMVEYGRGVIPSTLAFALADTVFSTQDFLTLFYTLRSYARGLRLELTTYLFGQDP

For the molecule `CC1(C)CC(C(=O)c2ccccn2)(N2CCN(Cc3ccncc3)CC2)CCO1` (centres unmarked) [Example 59, (2,2-dimethyl-4-(4-(pyridin-4-ylmethyl)piperazin-1-yl)tetrahydro-2H-pyran-4-yl)(pyridin-2-yl)methanone], the Ki under setting [1] is above 500 nM. As for `CC[C@@]1(N2CCN(CCc3ccccc3)CC2)CCO[C@@H](C)C1` (stereo in doubt) [Example 47, 1-(4-ethyl-2-methyltetrahydro-2H-pyran-4-yl)-4-phenethylpiperazine], the “μ and σ1 dual binding” value is reported as “++”. Still for that read-out and setting: with `CC(C)OCCN1CCN(C2(C)CCOCC2)CC1` [Example 184, 1-(2-isopropoxyethyl)-4-(4-methyltetrahydro-2H-pyran-4-yl)piperazine] the entry was “++”; with `CC1(N2CCN(Cc3ccccc3)CC2)CCOCC1` [Example 156, 1-Benzyl-4-(4-methyltetrahydro-2H-pyran-4-yl)piperazine], “++”. Consider `N#Cc1cc(CN2CCN(C3(C(=O)c4ccccn4)CCOCC3)CC2)ccc1F` [Example 188, 2-fluoro-5-((4-(4-picolinoyltetrahydro-2H-pyran-4-yl)piperazin-1-yl)methyl)benzonitrile], for which, under setting [1], the Ki is above 500 nM. Under “μ and σ1 dual binding”, `CC1(C)CC(C(=O)c2ccccn2)(N2CCCN(Cc3ccccc3)CC2)CCO1` (centres unmarked) [Example 24, (4-(4-benzyl-1,4-diazepan-1-yl)-2,2-dimethyltetrahydro-2H-pyran-4-yl)(pyridin-2-yl)methanone] gave a Ki below 500 nM. On the same count and under the same terms, with `CC1(C)CC(C2CC2)(N2CCN(CCc3ccccc3)CC2)CCO1` (centres unmarked) [Example 44, 1-(4-cyclopropyl-2,2-dimethyltetrahydro-2H-pyran-4-yl)-4-phenethylpiperazine] the figure was below 500 nM. Take `CC[C@@]1(N2CCN(Cc3ccccc3)CC2)CCO[C@@H](C)C1` [Example 164, 1-benzyl-4-((2S,4R)-4-ethyl-2-methyltetrahydro-2H-pyran-4-yl)piperazine]: the “μ and σ1 dual binding” value was “++”. On the same count and under the same terms, with `CC(C)OCCN1CCC([C@]2(C(=O)c3ccccn3)CCOC(C)(C)C2)CC1` [Example 244, (S)-(4-(1-(2-isopropoxyethyl)piperidin-4-yl)-2,2-dimethyltetrahydro-2H-pyran-4-yl)(pyridin-2-yl)methanone] the entry was “++”. As for `CC[C@@]1(N2CCN(Cc3ccc(C#N)cc3)CC2)CCO[C@@H](C)C1` (stereo in doubt) [Example 186, 4-((4-(4-ethyl-2-methyltetrahydro-2H-pyran-4-yl)piperazin-1-yl)methyl)benzonitrile], the “μ and σ1 dual binding” value was “++”. For the molecule `CC[C@]1(N2CCN(CCc3ccccc3)CC2)CCO[C@@H](C)C1` (stereo in doubt) [Example 46, 1-(4-ethyl-2-methyltetrahydro-2H-pyran-4-yl)-4-phenethylpiperazine], the “μ and σ1 dual binding” value is recorded as “++”. For `CC1(C)CC(C(=O)c2ccccn2)(N2CCN(Cc3cccc(F)c3)CC2)CCO1` (centres unmarked) [Example 61, (4-(4-(3-fluorobenzyl)piperazin-1-yl)-2,2-dimethyltetrahydro-2H-pyran-4-yl)(pyridin-2-yl)methanone], the Ki (μ and σ1 dual binding) is below 500 nM.

Turning to `CC1(C)CC(C(=O)c2ccccn2)(N2CCN(CCc3ccncc3)CC2)CCO1` (centres unmarked) [Example 81, (2,2-dimethyl-4-(4-(2-(pyridin-4-yl)ethyl)piperazin-1-yl)tetrahydro-2H-pyran-4-yl)(pyridin-2-yl)methanone], under setting [1], the Ki is above 500 nM.

With `CCC1(N2CCN(Cc3ccccc3)CC2)CCOC2(CCCC2)C1` (centres unmarked) [Example 29, 1-benzyl-4-(9-ethyl-6-oxaspiro[4.5]decan-9-yl)piperazine], the Ki (μ and σ1 dual binding) was below 500 nM. Where the note is “μ and σ1 dual binding”, `CC(C)CN1CCN(C2(c3ccccc3)CCOC3(CCCC3)C2)CC1` (centres unmarked) [Example 33, 1-isobutyl-4-(9-phenyl-6-oxaspiro[4.5]decan-9-yl)piperazine] had a Ki below 500 nM. The molecule `CC(C)CN1CCN(C2(C(=O)c3ccccc3)CCOC3(CCCC3)C2)CC1` (centres unmarked) [Example 7, (9-(4-isobutylpiperazin-1-yl)-6-oxaspiro[4.5]decan-9-yl)(phenyl)methanone] had a Ki (μ and σ1 dual binding) below 100 nM. Take `CC1(C)C[C@@](C(=O)c2ccccn2)(N2CCN(Cc3ccccc3)CC2)CCO1` [Example 2, (S)-(4-(4-benzylpiperazin-1-yl)-2,2-dimethyltetrahydro-2H-pyran-4-yl)(pyridin-2-yl)methanone]: the “μ and σ1 dual binding” value is recorded as “++”. In the case of `CC1(C)CC(C(=O)c2ccccn2)(N2CCN(CCc3ccccc3F)CC2)CCO1` (centres unmarked) [Example 111, (4-(4-(2-fluorophenethyl)piperazin-1-yl)-2,2-dimethyltetrahydro-2H-pyran-4-yl)(pyridin-2-yl)methanone], the Ki (μ and σ1 dual binding) was below 500 nM. With `CC1(C2CCN(Cc3ccccc3)CC2)CCOCC1` [Example 165, 1-benzyl-4-(4-methyltetrahydro-2H-pyran-4-yl)piperidine], the Ki under setting [1] was above 500 nM. The same measure, in the same setting: the result for `CC[C@]1(N2CCN(CCc3ccccc3)CC2)CCOC(C)(C)C1` [Example 112, (S)-1-(4-ethyl-2,2-dimethyltetrahydro-2H-pyran-4-yl)-4-phenethylpiperazine] reads below 500 nM; that for `CC(C)OCCN1CCN([C@]2(C(=O)c3ccccn3)CCO[C@H](C)C2)CC1` [Example 189, ((2R,4R)-4-(4-(2-isopropoxyethyl)piperazin-1-yl)-2-methyltetrahydro-2H-pyran-4-yl)(pyridin-2-yl)methanone], above 500 nM; that for `CCC1(N2CCN(CCc3ccccc3)CC2)CCOC(C)(C)C1` (centres unmarked) [Example 52, 1-(4-ethyl-2,2-dimethyltetrahydro-2H-pyran-4-yl)-4-phenethylpiperazine], below 500 nM. `CC(C)CCN1CCC([C@]2(C(=O)c3ccccn3)CCOC(C)(C)C2)CC1` [Example 114, (S)-(4-(1-isopentylpiperidin-4-yl)-2,2-dimethyltetrahydro-2H-pyran-4-yl)(pyridin-2-yl)methanone] registered a Ki (μ and σ1 dual binding) below 500 nM. As for `CC(C)OCCN1CCN([C@@]2(C(=O)c3ccccn3)CCO[C@@H](C)C2)CC1` [Example 190, ((2S,4S)-4-(4-(2-isopropoxyethyl)piperazin-1-yl)-2-methyltetrahydro-2H-pyran-4-yl)(pyridin-2-yl)methanone], the “μ and σ1 dual binding” value is on record as “++”. Regarding `CC1(C)CC(C(=O)c2ccccn2)(N2CCN(CCc3ccccc3)CC2)CCO1` (centres unmarked) [Example 54, (2,2-dimethyl-4-(4-phenethylpiperazin-1-yl)tetrahydro-2H-pyran-4-yl)(pyridin-2-yl)methanone], where the note is “μ and σ1 dual binding”, the Ki was below 500 nM. As to `CCC1(C2CCN(Cc3ccccc3)CC2)CCOC(C)(C)C1` (centres unmarked) [Example 167, 1-Benzyl-4-(4-ethyl-2,2-dimethyltetrahydro-2H-pyran-4-yl)piperidine], the “μ and σ1 dual binding” value was “++”.

`CC(C)CCN1CCC(C2(C(=O)c3ccccn3)CCOC(C)(C)C2)CC1` (centres unmarked) [Example 76, (4-(1-isopentylpiperidin-4-yl)-2,2-dimethyltetrahydro-2H-pyran-4-yl)(pyridin-2-yl)methanone] had a Ki (μ and σ1 dual binding) below 100 nM. As for `CC(C)OCCN1CCC([C@]2(C(=O)c3ccccn3)CCO[C@H](C)C2)CC1` [Example 249, ((2R,4S)-4-(1-(2-isopropoxyethyl)piperidin-4-yl)-2-methyltetrahydro-2H-pyran-4-yl)(pyridin-2-yl)methanone], the “μ and σ1 dual binding” value was “++”. Still for that read-out and setting: with `CC(C)CCN1CCN([C@@]2(C(=O)c3ccccn3)CCO[C@@H](C)C2)CC1` [Example 168] the entry was “++”.

In the case of `C[C@@H]1C[C@@](C(=O)c2ccccn2)(N2CCN(CCc3ccccc3)CC2)CCO1` [Example 26], the Ki under setting [1] was below 500 nM. As to `CC(C)CCN1CCN(C2(C)CCOC(C)(C)C2)CC1` (centres unmarked) [Example 79, 1-isopentyl-4-(2,2,4-trimethyltetrahydro-2H-pyran-4-yl)piperazine], the “μ and σ1 dual binding” value is given as “++”. For `O=C(c1ccccn1)C1(N2CCN(Cc3ccc(F)c(F)c3)CC2)CCOCC1` [Example 197, (4-(4-(3,4-difluorobenzyl)piperazin-1-yl)tetrahydro-2H-pyran-4-yl)(pyridin-2-yl)methanone], under setting [1], the Ki was above 500 nM. Regarding `CCC1(N2CCN(CCc3cccc(F)c3F)CC2)CCOC(C)(C)C1` (centres unmarked) [Example 100, 1-(2,3-difluorophenethyl)-4-(4-ethyl-2,2-dimethyltetrahydro-2H-pyran-4-yl)piperazine], the Ki (μ and σ1 dual binding) was below 500 nM.

Regarding `CC(C)CCN1CCN([C@@]2(C(=O)c3ccccn3)CCO[C@H](C)C2)CC1` [Example 97], the “μ and σ1 dual binding” value is recorded as “++”.

On to `CC1(C)CC(C(=O)c2ccccn2)(C2CCN(Cc3ccccc3F)CC2)CCO1` (centres unmarked) [Example 110, (4-(1-(2-fluorobenzyl)piperidin-4-yl)-2,2-dimethyltetrahydro-2H-pyran-4-yl)(pyridin-2-yl)methanone], for which the “μ and σ1 dual binding” value is listed as “++”.

For the molecule `CC(C)C1(N2CCN(CCc3ccccc3)CC2)CCOC(C)(C)C1` (centres unmarked) [Example 42, 1-(4-isopropyl-2,2-dimethyltetrahydro-2H-pyran-4-yl)-4-phenethylpiperazine], the Ki (μ and σ1 dual binding) is below 100 nM. Regarding `O=C(c1ccccn1)C1(N2CCN(Cc3ccccc3)CC2)CCOC1` (centres unmarked) [Example 20, (3-(4-benzylpiperazin-1-yl)tetrahydrofuran-3-yl)(pyridin-2-yl)methanone], the “μ and σ1 dual binding” value is “++”. On the same count and under the same terms, the result for `CCC1(N2CCN(Cc3ccc(C#N)cc3)CC2)CCOCC1` [Example 174, 4-((4-(4-ethyltetrahydro-2H-pyran-4-yl)piperazin-1-yl)methyl)benzonitrile] reads “++”.

The values are drawn from patent publication US10807970B2 (priority 2016, dated 2020).
